Results reported in patent publication US20230416258A1, “BENZ[…], AND PREPARATION METHOD THEREFOR AND USE THEREOF” (CHINA PHARMACEUTICAL UNIVERSITY, priority 2020, published 2023).

Tested on: KM mice
Assay: Test for drug-induced disappearance of righting reflex in mice
Type: in vivo
Conditions: single rapid bolus via tail vein
How it was run: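 Latency to, and duration of, righting reflex loss were recorded after one fast tail-vein bolus. Animals: randomized female KM mice weighing 18–25 g.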

SMILES | Duration (30 mg/kg) | Latency (30 mg/kg) | Duration (60 mg/kg) | Latency (60 mg/kg)
C#CCSc1nnc2n1-c1ccc([N+](=O)[O-])cc1C(c1ccccc1F)=N[C@H]2CCC(=O)OC [Compound 50, methyl (S)-3-(8-nitro-6-(2-fluorophenyl)-1-(prop-2-yn-1-ylthio)-4H-benzo[f][1,2,4]triazolo[4,3-a][1,4]diazepin-4-yl)propionate] | 15.27 min | 0.93 min | – | –
CCN(CC)CCSc1nnc2n1-c1ccc(Cl)cc1C(c1ccccc1F)=N[C@H]2CCC(=O)OC [Compound 54, methyl (S)-3-(8-chloro-1-((2-(diethylamino)ethyl)thio)-6-(2-fluorophenyl)-4H-benzo[f][1,2,4]triazolo[4,3-a][1,4]diazepin-4-yl)propionate] | 6.83 min | 0.24 min | – | –
CCN(CC)CCSc1nnc2n1-c1ccc(Br)cc1C(c1ccccc1F)=N[C@H]2CCC(=O)OC [Compound 55, methyl (S)-3-(8-bromo-1-((2-(diethylamino)ethyl)thio)-6-(2-fluorophenyl)-4H-benzo[f][1,2,4]triazolo[4,3-a][1,4]diazepin-4-yl)propionate] | 13.84 min | 0.74 min | – | –
CCN(CC)CCSc1nnc2n1-c1ccc([N+](=O)[O-])cc1C(c1ccccc1F)=N[C@H]2CCC(=O)OC [Compound 56, methyl (S)-3-(8-nitro-1-((2-(diethylamino)ethyl)thio)-6-(2-fluorophenyl)-4H-benzo[f][1,2,4]triazolo[4,3-a][1,4]diazepin-4-yl)propionate] | 10.22 min | 0.92 min | – | –
COC(=O)CC[C@@H]1N=C(c2ccccc2F)c2cc(Cl)ccc2-n2c(SCCCN(C)C)nnc21 [Compound 57, methyl (S)-3-(8-chloro-1-((3-(dimethylamino)propyl)thio)-6-(2-fluorophenyl)-4H-benzo[f][1,2,4]triazolo[4,3-a][1,4]diazepin-4-yl)propionate] | – | – | 5.89 min | 0.31 min
COC(=O)CC[C@@H]1N=C(c2ccccc2F)c2cc(Br)ccc2-n2c(SCCCN(C)C)nnc21 [Compound 58, methyl (S)-3-(8-bromo-1-((3-(dimethylamino)propyl)thio)-6-(2-fluorophenyl)-4H-benzo[f][1,2,4]triazolo[4,3-a][1,4]diazepin-4-yl)propionate] | 7.76 min | 0.25 min | 11.17 min | 0.33 min
COC(=O)CC[C@@H]1N=C(c2ccccc2F)c2cc(Cl)ccc2-n2c(SCCN3CCN(C)CC3)nnc21 [Compound 60, methyl (S)-3-(8-chloro-6-(2-fluorophenyl)-1-((2-(4-methylpiperazin-1-yl)ethyl)thio)-4H-benzo[f][1,2,4]triazolo[4,3-a][1,4]diazepin-4-yl)propionate] | 12.27 min | 0.49 min | – | –
COC(=O)CC[C@@H]1N=C(c2ccccc2F)c2cc(Br)ccc2-n2c(SCCN3CCN(C)CC3)nnc21 [Compound 61, methyl (S)-3-(8-bromo-6-(2-fluorophenyl)-1-((2-(4-methylpiperazin-1-yl)ethyl)thio)-4H-benzo[f][1,2,4]triazolo[4,3-a][1,4]diazepin-4-yl)propionate] | 12.28 min | 0.82 min | – | –
COC(=O)CC[C@@H]1N=C(c2ccccc2F)c2cc([N+](=O)[O-])ccc2-n2c(SCCN3CCN(C)CC3)nnc21 [Compound 62, methyl (S)-3-(8-nitro-6-(2-fluorophenyl)-1-((2-(4-methylpiperazin-1-yl)ethyl)thio)-4H-benzo[f][1,2,4]triazolo[4,3-a][1,4]diazepin-4-yl)propionate] | – | – | 10.05 min | 0.86 min
COC(=O)CC[C@@H]1N=C(c2ccccc2F)c2cc(Cl)ccc2-n2c(SC3CCN(C)CC3)nnc21 [Compound 63, methyl (S)-3-(8-chloro-6-(2-fluorophenyl)-1-((1-methylpiperidin-4-yl)thio)-4H-benzo[f][1,2,4]triazolo[4,3-a][1,4]diazepin-4-yl)propionate] | 15.25 min | 1.23 min | – | –
COC(=O)CC[C@@H]1N=C(c2ccccc2F)c2cc(Br)ccc2-n2c(SC3CCN(C)CC3)nnc21 [Compound 64, methyl (S)-3-(8-bromo-6-(2-fluorophenyl)-1-((1-methylpiperidin-4-yl)thio)-4H-benzo[f][1,2,4]triazolo[4,3-a][1,4]diazepin-4-yl)propionate] | – | – | 14.27 min | 0.99 min
COC(=O)CC[C@@H]1N=C(c2ccccc2F)c2cc([N+](=O)[O-])ccc2-n2c(SC3CCN(C)CC3)nnc21 [Compound 65, methyl (S)-3-(8-nitro-6-(2-fluorophenyl)-1-((1-methylpiperidin-4-yl)thio)-4H-benzo[f][1,2,4]triazolo[4,3-a][1,4]diazepin-4-yl)propionate] | 17.25 min | 1.74 min | – | –
COC(=O)CC[C@@H]1N=C(c2ccccc2F)c2cc(Cl)ccc2-n2c(SCCCN3CCN(CCO)CC3)nnc21 [Compound 66, methyl (S)-3-(8-chloro-6-(2-fluorophenyl)-1-((3-(4-(2-hydroxyethyl)piperazin-1-yl)propyl)thio)-4H-benzo[f][1,2,4]triazolo[4,3-a][1,4]diazepin-4-yl)propionate] | – | – | 4.27 min | 0.89 min
COC(=O)CC[C@@H]1N=C(c2ccccc2F)c2cc(Br)ccc2-n2c(SCCCN3CCN(CCO)CC3)nnc21 [Compound 67, methyl (S)-3-(8-bromo-6-(2-fluorophenyl)-1-((3-(4-(2-hydroxyethyl)piperazin-1-yl)propyl)thio)-4H-benzo[f][1,2,4]triazolo[4,3-a][1,4]diazepin-4-yl)propionate] | 11.37 min | 0.84 min | – | –
COC(=O)CC[C@@H]1N=C(c2ccccc2F)c2cc([N+](=O)[O-])ccc2-n2c(SCCCN3CCN(CCO)CC3)nnc21 [Compound 68, methyl (S)-3-(8-nitro-6-(2-fluorophenyl)-1-((3-(4-(2-hydroxyethyl)piperazin-1-yl)propyl)thio)-4H-benzo[f][1,2,4]triazolo[4,3-a][1,4]diazepin-4-yl)propionate] | – | – | 15.02 min | 0.68 min
COC(=O)CC[C@@H]1N=C(c2ccccc2F)c2cc(Cl)ccc2-n2c(SCN3CCOCC3)nnc21 [Compound 69, methyl (S)-3-(8-chloro-6-(2-fluorophenyl)-1-((morpholinomethyl)thio)-4H-benzo[f][1,2,4]triazolo[4,3-a][1,4]diazepin-4-yl)propionate] | 21.61 min | 0.90 min | – | –
COC(=O)CC[C@@H]1N=C(c2ccccc2F)c2cc(Br)ccc2-n2c(SCN3CCOCC3)nnc21 [Compound 70, methyl (S)-3-(8-bromo-6-(2-fluorophenyl)-1-((morpholinomethyl)thio)-4H-benzo[f][1,2,4]triazolo[4,3-a][1,4]diazepin-4-yl)propionate] | 18.61 min | 1.01 min | – | –
COC(=O)CC[C@@H]1N=C(c2ccccc2F)c2cc([N+](=O)[O-])ccc2-n2c(SCN3CCOCC3)nnc21 [Compound 71, methyl (S)-3-(8-nitro-6-(2-fluorophenyl)-1-((morpholinomethyl)thio)-4H-benzo[f][1,2,4]triazolo[4,3-a][1,4]diazepin-4-yl)propionate] | – | – | 12.10 min | 0.56 min
COC(=O)CC[C@@H]1N=C(c2ccccc2F)c2cc(Cl)ccc2-n2c(SCN3CCN(c4ccccc4)CC3)nnc21 [Compound 72, methyl (S)-3-(8-chloro-6-(2-fluorophenyl)-1-(((4-phenylpiperazin-1-yl)methyl)thio)-4H-benzo[f][1,2,4]triazolo[4,3-a][1,4]diazepin-4-yl)propionate] | 13.12 min | 0.42 min | 10.67 min | 1.52 min
COC(=O)CC[C@@H]1N=C(c2ccccc2F)c2cc(Br)ccc2-n2c(SCN3CCN(c4ccccc4)CC3)nnc21 [Compound 73, methyl (S)-3-(8-bromo-6-(2-fluorophenyl)-1-(((4-phenylpiperazin-1-yl)methyl)thio)-4H-benzo[f][1,2,4]triazolo[4,3-a][1,4]diazepin-4-yl)propionate] | 12.12 min | 0.86 min | – | –
COC(=O)CC[C@@H]1N=C(c2ccccc2F)c2cc([N+](=O)[O-])ccc2-n2c(SCN3CCN(c4ccccc4)CC3)nnc21 [Compound 74, methyl (S)-3-(8-nitro-6-(2-fluorophenyl)-1-(((4-phenylpiperazin-1-yl)methyl)thio)-4H-benzo[f][1,2,4]triazolo[4,3-a][1,4]diazepin-4-yl)propionate] | 6.16 min | 0.47 min | – | –
COC(=O)CC[C@@H]1N=C(c2ccccc2Cl)c2cc(Cl)ccc2-n2c(SCC3CC3)nnc21 [Compound 75, methyl (S)-3-(8-chloro-6-(2-chlorophenyl)-1-((cyclopropylmethyl)thio)-4H-benzo[f][1,2,4]triazolo[4,3-a][1,4]diazepin-4-yl)propionate] | 6.53 min | 0.51 min | – | –
COC(=O)CC[C@@H]1N=C(c2ccccc2Cl)c2cc(Br)ccc2-n2c(SCC3CC3)nnc21 [Compound 76, methyl (S)-3-(8-bromo-6-(2-chlorophenyl)-1-((cyclopropylmethyl)thio)-4H-benzo[f][1,2,4]triazolo[4,3-a][1,4]diazepin-4-yl)propionate] | 5.65 min | 0.76 min | – | –
COC(=O)CC[C@@H]1N=C(c2ccccc2Cl)c2cc([N+](=O)[O-])ccc2-n2c(SCC3CC3)nnc21 [Compound 77, methyl (S)-3-(8-nitro-6-(2-chlorophenyl)-1-((cyclopropylmethyl)thio)-4H-benzo[f][1,2,4]triazolo[4,3-a][1,4]diazepin-4-yl)propionate] | 5.69 min | 0.38 min | – | –
C#CCSc1nnc2n1-c1ccc(Cl)cc1C(c1ccccc1Cl)=N[C@H]2CCC(=O)OC [Compound 78, methyl (S)-3-(8-chloro-6-(2-chlorophenyl)-1-(prop-2-yn-1-ylthio)-4H-benzo[f][1,2,4]triazolo[4,3-a][1,4]diazepin-4-yl)propionate] | 12.67 min | 1.05 min | – | –
